In US20230129651A1, “HAIRPIN STRUCTURE NUCLEIC ACID MOLECULES CAPABLE OF MODULATING TARGET GENE EXPRESSION AND USES THEREOF” (KOREA ADVANCED INSTITUTE OF SCIENCE AND TECHNOLOGY, priority 2021, published 2023):
In the oligonucleotide strings, read from the 5' end, every base follows the letter of its sugar. An asterisk marks phosphorothioate; unmarked linkages are phosphodiester. Other units and linkages are bracketed, terminal groups are in braces. A string of capitals states the bases alone. d = 2'-deoxy (DNA)

Experiments:
cells = test: Cytotoxicity assay of chemically modified miRNA triggers (CCK-8); type: cell-based; settings: after transfection
Description: (§1) The miRNA triggers were assayed for cytotoxicity and apoptosis induction, using the CCK-8 (Cell Counting Kit-8) (Dojindo, Kumamoto, Japan) according to the manufacturer's instruction. Cells were incubated in 96-well plates (5×10^3 cells/well) at 37° C. for 24 hours under a 5% CO2 atmosphere, followed by transfection. Three days after transfection, the medium was removed. A 10-fold dilution of CCK-8 solution in DMEM was added to the cells which were then incubated at 37° C. for 2 hours. After incubation, absorbance was read at 450 nm on Tecan Infinite M200 pro microplate reader (Mnnedorf, Switzerland).
In addition, FPS HP and 2′-OMe HP, which were the most resistant to degradation in biological samples, were analyzed for cytotoxicity. In this regard, the HP in which the entire nucleotides of miRNA trigger (LP) were modified with PS (expressed as PS in Table 6 and FIG. 6), the linear probe in which the entire nucleotides of miRNA trigger (LP) were modified with 2′-O-Me (expressed as 2′O-me in Table 6 and FIG. 6), the control DNA LP (expressed as DNA in Table 6 and FIG. 6), or siRNA was transfected into cells which were then measured for cell viability using the method of Reference Example 9. The result is depicted in FIG. 6. […]

[1] = tested on: breast cancer cell line MDA-MB-453; test: Cell viability of MDA-MB-453 after transfection; type: cell-based; settings: miR-222 not endogenous
Description: as §1
(§2) The selected linear miRNA triggers (bcl-xL(1)_222_222 and bcl-xL(2)_222_222) were transfected into the breast cancer cell line MDA-MB-453 to which miR-222 is not endogenous. Cell viability, and the mRNA and protein expression levels of the target gene (bcl-xL) were measured and the results are depicted in FIGS. 33a to 33c.

bcl-xL mRNA = bcl-xL mRNA expression in MDA-MB-453 cells; type: cell-based
Description: In the same manner as in Reference Example 4, miRNA triggers were transfected into cells. After 48 hours, total RNA was extracted using TRIzol (Thermo Fisher Scientific) according to the manufacturer's instruction. The purified RNA was treated with DNase I and then reverse transcribed in the presence of RevertAid reverse transcriptase (Thermo Fisher Scientific), with random hexamers (Thermo Fisher Scientific) serving as primers. For use in amplification of target genes, primers for target genes were added, together with the cDNA, to the SYBR Green PCR master mix (Thermo Fisher Scientific). RT-qPCR was conducted on a StepOnePlus real-time PCR system. Cq values obtained from this analysis was quantitatively analyzed based on the 2^−ΔΔC(t) method.
as §2

Bcl-xL = test: bcl-xL protein expression in MDA-MB-453 cells; type: cell-based
Description: miRNA triggers were transfected into cells in the same manner as in Reference Example 4. After 72 hours, the cells were collected using a cell scraper and lysed with a RIPA buffer (NaCl 150 mM, EDTA 5 mM, Tris 50 mM, NP-40 1.0%, sodium deoxycholate 0.5%, SDS 0.1%). The cell lysate was sonicated 15 times, each for 20 sec, with a halt for 30 sec every sonication. Following centrifugation at 5,000 g for 5 min, the supernatant was taken and used to extract proteins therefrom. A total of 30-40 μg of protein sample was separated in 10-15% SDS-PAGE gel and transferred onto a PVDF membrane through a semi-dry blotting system. The membrane was blocked for 1 hour in 5% skimmed milk and incubated for 2 hours with a 1,000-fold dilution of a primary antibody in, 1% skimmed milk. […] The membrane incubated with the secondary antibody was washed three times with 1×PBST for 10 min each wash, and then reacted with Clarity Western ECL Substrate (#1705061, Bio-Rad), after which images were obtained and analyzed using ChemiDoc (Bio-rad, Hercules, USA).
as §2

[2] = tested on: breast cancer cell line MDA-MB-231; test: Cell viability of MDA-MB-231 after transfection; type: cell-based; settings: Example 8-1
Description: as §1
The seven linear miRNA triggers prepared above and the positive control siRNA(siBcl-xL) capable of binding to bcL-xL were transfected into the breast cancer cell line MDA-MB-231 in which miR-222 is overexpressed. Cell viability was measured and is depicted in FIG. 32a.
Linear miRNA triggers that could bind to miR-222 and target bcl-xL and mcl-1, respectively, were prepared and transfected alone or in combination into the breast cancer cell line MDA-MB-231. Cell viability was measured and the measurements are depicted in FIG. 34. siRNAs against Mcl-1 and Bcl-xL were used as controls. Sequences are listed in Table 23 for the linear miRNA trigger prepared above, in Tables 22 and 9 for the controls Luc-Luc-Luc and luc-222-222, respectively, and in Table 13 for the siRNAs. Every nucleotide of the triggers and the controls was chemically modified with 2′-OMe.
Linear miRNA triggers that could bind to miR-141 or let7f and target Bcl-xL or Mcl-1 were prepared and transfected alone or in combination into the breast cancer cell line MDA-MB-231 which was then measured for cell viability. […]
The hairpin miRNA triggers prepared above were transfected into MDA-MB-231 and MDA-MB-453 cells which were then measured for cell viability. […]
Hairpin miRNA triggers which could bind to miR-222 or let-7f and target mcl-1 or bcl-xL were prepared and transfected into the breast cancer cell line MDA-MB-231 which was then measured for cell viability. […]

GFP mRNA = test: GFP fluorescence intensity in GFP-expressing Hela-141 cells; type: cell-based; settings: trigger 30 to 60 nM, siGFP compared to siLuc
Text: A GFP fluorescent protein-expressing plasmid (used in Chen L L, DeCerbo J N, Carmichael G G. 2008. Alu element-mediated gene silencing. EMBO J 27: 1694-1705) was transfected into Hela-141 cells to prepare GFP-expressing Hela-141 cells. As stated in Reference Example 1, a linear miRNA trigger (LP; GFP_141_141), which can target GFP mRNA (=complementarily bind to GFP mRNA to regulate the expression of GFP) and complementarily bind to miR-141, and siRNAs which target GFP and Luc (Luciferase), respectively, were synthesized in Bioneer Inc. Sequences of the LP and siRNAs and types and positions of chemical modifications in each sequence are listed in Table 8, below.
Above all, siLuc and siGFP were transfected into the GFP-expressing Hela-141 cells which were then measured for fluorescence intensity on an ELISA reader. […] In addition, the linear miRNA trigger (GFP(1)_141_141) was transfected into the GFP-expressing Hela-141 cells which were then measured for fluorescence intensity. The result is depicted in FIG. 8. For the transfection, the GFP plasmid and GFP_141_141 were used at a concentration of 0.5 to 1 μg/ml and 30 to 60 nM, respectively.

[3] = tested on: miRNA-141 and PKR mRNA (2); test: PAGE assay of dumbbell miRNA trigger binding to miRNA and target mRNA; settings: 100 nM each, 37° C., 1 hour
Description: To a buffer (1×PBS buffer, +5 mM MgCl2, 137 mM NaCl, 10 mM PO4, 2.7 mM KCl, 5 mM MgCl2; pH 7.4) containing 100 nM of the dumbbell miRNA trigger (DP) prepared above, 100 nM miRNA and/or 100 nM target mRNA was added, followed by incubation at 37° C. for 1 hour. Each sample was loaded to a PAGE gel and run. The results are depicted in FIG. 39b.

Molecule: 2′-O-Me: linear probe with entire nucleotides modified with 2′-O-Me, Table 6; SEQ ID NO 38 (UCGAAGUACUCAGCGUAAGUUCGAAGUACUCAGCGUAAGUUCGAAGUACUCAGCGUAAGU; all 2'-O-methyl, backbone not given here)
- cell viability versus non-transfected negative control (in words) (cells): not significantly different in viability from the negative control

Molecule: PS: miRNA trigger of random sequence with entire nucleotides PS-modified, Table 6; SEQ ID NO 37 (dT*dC*dG*dA*dA*dG*dT*dA*dC*dT*dC*dA*dG*dC*dG*dT*dA*dA*dG*dT*dT*dC*dG*dA*dA*dG*dT*dA*dC*dT*dC*dA*dG*dC*dG*dT*dA*dA*dG*dT*dT*dC*dG*dA*dA*dG*dT*dA*dC*dT*dC*dA*dG*dC*dG*dT*dA*dA*dG*dT)
- cell viability (cells): less than 40%

Molecule: bcl-xL(2)_222_222: linear miRNA trigger binding miR-222 and knocking down bcl-xL; SEQ ID NO 107 (ACCCAGUAGCCAGAUGUAGCUACCCAGUAGCCAGAUGUAGCUUACCUGCCAGCCUCCUU; all 2'-O-methyl, backbone not given here)
- cell viability [1]: did not significantly change
- mRNA expression level of target bcl-xL (bcl-xL mRNA): did not significantly change
- protein expression level of target bcl-xL (Bcl-xL): did not significantly change
- killing of breast cancer cells (cell viability) [2]: effectively kill breast cancer cells

Molecule: siGFP: siRNA which targets GFP; SEQ ID NO 44 (UUAUGUUUCAGGUUCAGGG; unmodified RNA) [reference compound]
- GFP fluorescence intensity (GFP mRNA): significantly reduced fluorescence intensity

B1: GFP(1)_141_141: linear miRNA trigger targeting GFP mRNA and binding miR-141; SEQ ID NO 41 (nucleic acid)
chain: CCAUCUUUACCUCACAGUGUUACCAUCUUUACCUCACAGUGUUAUUAUGUUUCAGGUUCAGGGGGA
modifications: all 2'-O-methyl, backbone not given here
- GFP fluorescence intensity (GFP mRNA): reduced GFP fluorescence intensity in a dose-dependent manner

B2: bcl-xL(1)_222_222: linear miRNA trigger binding miR-222 and knocking down bcl-xL; SEQ ID NO 106 (nucleic acid)
chain: ACCCAGUAGCCAGAUGUAGCUACCCAGUAGCCAGAUGUAGCUUCUCCUUCCUGCCCUUCCU
modifications: all 2'-O-methyl, backbone not given here
- cell viability [1]: did not significantly change
- mRNA expression level of target bcl-xL (bcl-xL mRNA): did not significantly change
- protein expression level of target bcl-xL (Bcl-xL): did not significantly change
- killing of breast cancer cells (cell viability) [2]: effectively kill breast cancer cells

B3: DB_PKRS20_141: dumbbell-shaped miRNA trigger, 20-nt mRNA-binding portion, binds miRNA-141 and PKR mRNA; SEQ ID NO 130 (nucleic acid)
chain: CCCCCCGAATGAGAAATACCATCTTTACCAGACAGTGTTATATTTCTCATTCCCTTCCTTNNAAGGAAGGGGGGGG
modifications: listed as DNA, chemistry not given here
- binding to target mRNA in the absence of the miRNA ([3]; lane 3): did not bind to a target mRNA
- binding to miRNA and/or target mRNA in the presence of the miRNA ([3]; lanes 2 and 4): could bind to a miRNA and/or target mRNA only in the presence of the miRNA
